Measurements taken from PubChem BioAssay (NCI).
Values joined by “and” are separate entries in the source; they are usually repeats but may differ in a detail not shown here. Identical values can stand only once.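 Each compound was tested at five concentrations against cells in 96-well plates for 48 hours. GI50 marks 50% less growth. The concentration for full growth arrest is given as TGI.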

Columns and labels:
Assay in all cases: NCI tumour cell line growth inhibition, 48 h
IGROV1 ovarian = system: IGROV1 ovarian
SF-539 CNS = system: SF-539 CNS
A549 NSCLC = system: A549 NSCLC
M14 melanoma = system: M14 melanoma
CAKI-1 renal = system: CAKI-1 renal
OVCAR-8 ovarian = system: OVCAR-8 ovarian
SK-MEL-2 melanoma = system: SK-MEL-2 melanoma
BT-549 breast = system: BT-549 breast
RXF 393 renal = system: RXF 393 renal
HCC-2998 colon = system: HCC-2998 colon

Row | SMILES | TGI (IGROV1 ovarian) [µM] | TGI (SF-539 CNS) [µM] | TGI (A549 NSCLC) | TGI (M14 melanoma) [µM] | TGI (CAKI-1 renal) | TGI (OVCAR-8 ovarian) | TGI (SK-MEL-2 melanoma) [µM] | TGI (BT-549 breast) [µM] | TGI (RXF 393 renal) [µM] | TGI (HCC-2998 colon) | GI50 (IGROV1 ovarian) [µM] | GI50 (SF-539 CNS) [µM] | GI50 (A549 NSCLC) | GI50 (M14 melanoma) [µM] | GI50 (CAKI-1 renal) | GI50 (RXF 393 renal) [µM] | GI50 (OVCAR-8 ovarian) | GI50 (SK-MEL-2 melanoma) [µM] | GI50 (BT-549 breast) [µM] | GI50 (HCC-2998 colon)
1 | Nc1ncc2ncn(C3CCC(CO)O3)c2n1 (configuration not stated) | > 100 | > 100 | > 100 µM | > 100 | > 100 µM | > 100 µM | > 100 | > 100 | – | – | – | – | – | – | – | – | – | – | – | –
2 | C1=CC2CCC1CN2CCC1CNc2ccccc21 (configuration not stated) | > 100 | > 100 | > 100 µM | > 100 | – | > 100 µM | > 100 | – | > 100 | > 100 µM | – | – | – | – | – | – | – | – | – | –
3 | CCCCC1(C(NC(=O)c2ccccc2Cl)c2ccncc2)C(=O)N(c2ccccc2)N(c2ccccc2)C1=O (configuration not stated) | > 100 | > 100 | > 100 µM | > 100 | – | > 100 µM | > 100 | – | > 100 | > 100 µM | – | – | – | – | – | – | – | – | – | –
4 | COc1ccc(/C=N/NS(=O)(=O)c2ccccc2)cc1 | > 100 | > 100 | > 100 µM | > 100 | > 100 µM | > 100 µM | > 100 | – | > 100 | > 100 µM | – | – | – | – | – | – | – | – | – | –
5 | COc1ccc(Br)c(C(=O)N2CCc3ccccc32)c1N | > 100 | 97 | > 100 µM | > 100 | – | > 100 µM | 84.5 | – | > 100 | > 100 µM | – | – | – | – | – | – | – | – | – | –
6 | O=c1cccc(Cl)[nH]1 | > 100 | > 100 | > 100 µM | > 100 | > 100 µM | > 100 µM | > 100 | > 100 | > 100 | – | – | – | – | – | – | – | – | – | – | –
7 | CC1(C)OC(=O)C(=C2CCC(C(=O)Nc3cccc(C(F)(F)F)c3)N2)C(=O)O1 (configuration not stated) | > 100 | > 100 | > 100 µM | > 100 | 26.6 µM | > 100 µM | > 100 | – | > 100 | > 100 µM | – | – | – | – | – | – | – | – | – | –
8 | Nn1c(-c2ccc(Cl)cc2)nc2c(-c3ccc(Cl)cc3)nc3ccc(Cl)cc3c2c1=O | 32.8 | 36.8 | > 100 µM | > 100 | 22 µM | 95.2 µM | > 100 | 60.2 | 30.9 | – | 4.01 | 10.4 | 4.8 µM | 15.1 | 3.97 µM | 11.8 | 7.58 µM | 25.2 | 14.5 | –
9 | COc1ccc(-c2csc(Nc3cccc(-c4csc(C)n4)c3)n2)cc1 | > 41.6 | 8.27 | 49.8 µM | 14.2 | > 14 µM | > 31.2 µM | > 27 | 40.3 | > 14.9 | – | 0.697 | 1.57 | 0.902 µM | 2.79 | 1.15 µM | 1.87 | 2.27 µM | 4.7 | 8.2 | –
10 | O=C(/C=C/c1ccccc1O)c1ccccc1Cl | > 100 | > 100 | > 100 µM | > 100 | > 100 µM | > 100 µM | > 100 | – | > 100 | > 100 µM | – | – | – | – | – | – | – | – | – | –
11 | Clc1ccc(CN2CCCN(Cc3ccc(Cl)cc3)C2c2cc3ccccc3c3ccccc23)cc1 | > 100 | > 100 | > 100 µM | 34.2 | > 100 µM | > 100 µM | 44.1 | > 100 | > 100 | – | – | – | – | – | – | – | – | – | – | –
12 | CCCCCCCCCCCCCCCC[n+]1ccccc1 | 1.9 | 2.35 | 1.86 µM and 2.95 µM | 1.04 | 3.38 µM and 10.2 µM | 1.28 µM and 3.07 µM | 1.76 | – | 0.688 | 1.43 µM and 1.68 µM | 0.384 | 0.95 | 0.468 µM and 1.21 µM | 0.28 | 0.616 µM and 1.13 µM | 0.224 | 0.331 µM and 0.704 µM | 0.468 | – | 0.339 µM and 0.363 µM
13 | Cc1cc(NN=C(c2ccc(O)cc2)c2ccc(O)cc2)c([N+](=O)[O-])cc1[N+](=O)[O-] | – | – | > 100 µM | 21.1 | 51.1 µM | > 100 µM | – | 35.5 | 6.56 | 28.7 µM | – | – | 2.47 µM | 4.5 | 18.7 µM | 1.79 | 4.08 µM | – | 11.4 | 8.24 µM
14 | CCOC1Oc2ccc(C)cc2C(=O)/C1=C\Nc1ccc(S(N)(=O)=O)cc1 (configuration not stated) | > 50 | 24.2 | > 50 µM | 21.5 | 23.3 µM | 27.7 µM | > 50 | 35.2 | 21.3 | – | 15 | 7.49 | 13.9 µM | 9.32 | 10.6 µM | 8.92 | 9.97 µM | 24.3 | 10.1 | –
15 | COc1cccc(/C=N\NC(=O)C(C)SC(C)C(=O)N/N=C/c2cccc(OC)c2)c1 (configuration not stated) | 41.7 | > 100 | 20.6 µM | > 100 | > 80.8 µM | 70 µM | > 62.6 | – | 28.6 | 47.5 µM | – | – | – | – | – | – | – | – | – | –
16 | COc1ccc(C2NC(=S)NC3=C2CCOc2c3ccc3ccccc23)cc1 (configuration not stated) | > 100 | – | > 100 µM | > 100 | > 100 µM | > 100 µM | > 100 | > 100 | 48 | – | > 100 | – | 39 µM | > 100 | > 100 µM | 1.57 | 32.6 µM | > 100 | 68.8 | –
17 | O=C(O)CCCCC1CCSS1 (configuration not stated) | > 100 | > 100 | > 100 µM | > 100 | > 100 µM | > 100 µM | > 100 | – | – | > 100 µM | – | – | – | – | – | – | – | – | – | –
18 | COc1cc(-c2nn(-c3cccc(NC(=O)CCNc4ccc(N5CCOCC5)cc4)c3)cc2-c2ccncc2)ccc1Cl | > 100 | 19.4 | 25.1 µM | 10.5 | – | 16.1 µM | 5.64 | 31 | 8.08 | > 100 µM | 3.31 | 2.91 | 1.46 µM | 2.58 | – | 2.05 | 2.92 µM | 2.07 | 3.41 | 4.77 µM
19 | COc1cc(-c2nn(-c3cccc(NC(=O)CCN4CCN(c5ccccc5)CC4)c3)cc2-c2ccncc2)ccc1Cl | > 100 | 18.4 | > 100 µM | 7.01 | – | > 100 µM | 6.85 | > 100 | 5.18 | > 100 µM | 4.12 | 2.53 | 4.91 µM | 2.31 | – | 1.91 | 4.5 µM | 2.45 | 3.17 | 3.56 µM
